# Columns and labels:
# HiBit-BRG1 = molecular target: T1, HiBit-BRG1 (Homo sapiens, UniProt P51532); assay: HiBit-BRG1 cell-based degradation assay (Nano-Glo HiBiT Lytic Detection); conditions: HeLa cells expressing HiBit-BRG1 and LgBit, 24 h; for DC50: read-out: BRG1 HiBit Degradation IC50; for Dmax: read-out: BRG1 HiBit Degradation Maximum (%)
# T1 construct: expressed in transfected cells
# Procedure: (§1) Procedure: A stable HeLa cell line expressing HiBiT-BRM was generated. On day 0, 5000 cells were seeded in 40 μL of media into each well of 384-well cell culture plates. […] Subsequently plates were incubated for 24 h in a standard tissue culture incubator and equilibrated at room temperature for 15 minutes. Nano-Glo HiBiT Lytic Detection System (Promega N3050) reagent was freshly prepared and 20 ul was added to each well. Upon addition of this LgBit-containing reagent, the HiBiT and LgBiT proteins associate to form the luminescent NanoBiT luciferase. The plates were shaken for 10 minutes at room temperature and the bioluminescence read using an EnVision plate reader (PerkinElmer).
# For measurement of BRG1 degradation, a stable HeLa cell line expressing HiBit-BRG1 and LgBit was generated. The same protocol as above was then followed.
# (§2) The degradation % was calculated using the following formula: % degradation=100%−100%×(LumSample−LumLC)/(LumHC−LumLC). DMSO treated cells are employed as High Control (HC) and 2 μM of a known BRM/BRG1 degrader standard treated cells are employed as Low Control (LC).
# HiBiT-BRM = molecular target: T2, HiBiT-BRM (Homo sapiens, UniProt P51531); assay: HiBiT-BRM cell-based degradation assay (Nano-Glo HiBiT Lytic Detection); conditions: HeLa cells expressing HiBiT-BRM, 24 h; for DC50: read-out: BRM HiBit Degradation IC50
# T2 construct: expressed in transfected cells
# T2 sequence (P51531 whole entry): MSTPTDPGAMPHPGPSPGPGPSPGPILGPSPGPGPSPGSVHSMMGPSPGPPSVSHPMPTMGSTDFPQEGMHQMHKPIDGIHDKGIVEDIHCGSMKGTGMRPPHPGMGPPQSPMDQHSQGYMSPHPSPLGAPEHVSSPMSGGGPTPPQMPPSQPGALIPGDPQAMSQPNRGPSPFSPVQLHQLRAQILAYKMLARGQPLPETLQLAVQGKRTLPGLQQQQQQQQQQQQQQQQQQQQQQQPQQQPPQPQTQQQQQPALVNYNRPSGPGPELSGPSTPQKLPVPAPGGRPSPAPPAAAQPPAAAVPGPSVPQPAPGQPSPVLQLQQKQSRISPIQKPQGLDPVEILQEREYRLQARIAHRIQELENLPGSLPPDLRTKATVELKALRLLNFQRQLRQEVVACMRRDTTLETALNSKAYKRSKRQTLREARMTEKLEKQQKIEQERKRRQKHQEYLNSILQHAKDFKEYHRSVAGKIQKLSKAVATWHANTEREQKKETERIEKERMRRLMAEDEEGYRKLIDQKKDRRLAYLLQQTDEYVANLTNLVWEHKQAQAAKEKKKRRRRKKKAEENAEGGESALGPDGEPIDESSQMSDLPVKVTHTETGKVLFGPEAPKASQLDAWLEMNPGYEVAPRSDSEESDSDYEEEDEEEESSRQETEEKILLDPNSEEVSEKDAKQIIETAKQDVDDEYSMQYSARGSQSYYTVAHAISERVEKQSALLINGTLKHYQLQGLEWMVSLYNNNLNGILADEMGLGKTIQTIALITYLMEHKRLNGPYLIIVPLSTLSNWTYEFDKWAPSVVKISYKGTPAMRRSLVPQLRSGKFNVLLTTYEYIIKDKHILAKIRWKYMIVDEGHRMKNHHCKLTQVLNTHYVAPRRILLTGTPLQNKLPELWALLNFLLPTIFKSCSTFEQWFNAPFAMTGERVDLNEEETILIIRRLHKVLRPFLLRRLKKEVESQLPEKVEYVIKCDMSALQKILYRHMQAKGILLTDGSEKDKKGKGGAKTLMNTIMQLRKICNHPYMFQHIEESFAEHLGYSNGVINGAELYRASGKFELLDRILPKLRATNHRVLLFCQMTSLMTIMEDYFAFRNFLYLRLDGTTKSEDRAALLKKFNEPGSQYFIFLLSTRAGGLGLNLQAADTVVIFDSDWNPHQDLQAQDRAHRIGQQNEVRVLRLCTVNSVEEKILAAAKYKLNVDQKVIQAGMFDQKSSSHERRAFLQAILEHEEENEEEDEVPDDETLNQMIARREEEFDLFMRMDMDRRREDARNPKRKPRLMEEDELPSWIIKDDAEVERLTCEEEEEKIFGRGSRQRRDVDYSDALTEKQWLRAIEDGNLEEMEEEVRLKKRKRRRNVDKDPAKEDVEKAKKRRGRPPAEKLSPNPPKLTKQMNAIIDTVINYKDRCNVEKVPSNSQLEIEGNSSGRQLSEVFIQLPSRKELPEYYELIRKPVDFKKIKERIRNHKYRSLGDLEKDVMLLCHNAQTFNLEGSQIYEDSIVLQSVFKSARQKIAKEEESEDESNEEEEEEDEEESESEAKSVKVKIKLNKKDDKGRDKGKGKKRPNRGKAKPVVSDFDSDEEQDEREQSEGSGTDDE
# Procedure: as §1, §2
# T1 sequence (P51532 whole entry): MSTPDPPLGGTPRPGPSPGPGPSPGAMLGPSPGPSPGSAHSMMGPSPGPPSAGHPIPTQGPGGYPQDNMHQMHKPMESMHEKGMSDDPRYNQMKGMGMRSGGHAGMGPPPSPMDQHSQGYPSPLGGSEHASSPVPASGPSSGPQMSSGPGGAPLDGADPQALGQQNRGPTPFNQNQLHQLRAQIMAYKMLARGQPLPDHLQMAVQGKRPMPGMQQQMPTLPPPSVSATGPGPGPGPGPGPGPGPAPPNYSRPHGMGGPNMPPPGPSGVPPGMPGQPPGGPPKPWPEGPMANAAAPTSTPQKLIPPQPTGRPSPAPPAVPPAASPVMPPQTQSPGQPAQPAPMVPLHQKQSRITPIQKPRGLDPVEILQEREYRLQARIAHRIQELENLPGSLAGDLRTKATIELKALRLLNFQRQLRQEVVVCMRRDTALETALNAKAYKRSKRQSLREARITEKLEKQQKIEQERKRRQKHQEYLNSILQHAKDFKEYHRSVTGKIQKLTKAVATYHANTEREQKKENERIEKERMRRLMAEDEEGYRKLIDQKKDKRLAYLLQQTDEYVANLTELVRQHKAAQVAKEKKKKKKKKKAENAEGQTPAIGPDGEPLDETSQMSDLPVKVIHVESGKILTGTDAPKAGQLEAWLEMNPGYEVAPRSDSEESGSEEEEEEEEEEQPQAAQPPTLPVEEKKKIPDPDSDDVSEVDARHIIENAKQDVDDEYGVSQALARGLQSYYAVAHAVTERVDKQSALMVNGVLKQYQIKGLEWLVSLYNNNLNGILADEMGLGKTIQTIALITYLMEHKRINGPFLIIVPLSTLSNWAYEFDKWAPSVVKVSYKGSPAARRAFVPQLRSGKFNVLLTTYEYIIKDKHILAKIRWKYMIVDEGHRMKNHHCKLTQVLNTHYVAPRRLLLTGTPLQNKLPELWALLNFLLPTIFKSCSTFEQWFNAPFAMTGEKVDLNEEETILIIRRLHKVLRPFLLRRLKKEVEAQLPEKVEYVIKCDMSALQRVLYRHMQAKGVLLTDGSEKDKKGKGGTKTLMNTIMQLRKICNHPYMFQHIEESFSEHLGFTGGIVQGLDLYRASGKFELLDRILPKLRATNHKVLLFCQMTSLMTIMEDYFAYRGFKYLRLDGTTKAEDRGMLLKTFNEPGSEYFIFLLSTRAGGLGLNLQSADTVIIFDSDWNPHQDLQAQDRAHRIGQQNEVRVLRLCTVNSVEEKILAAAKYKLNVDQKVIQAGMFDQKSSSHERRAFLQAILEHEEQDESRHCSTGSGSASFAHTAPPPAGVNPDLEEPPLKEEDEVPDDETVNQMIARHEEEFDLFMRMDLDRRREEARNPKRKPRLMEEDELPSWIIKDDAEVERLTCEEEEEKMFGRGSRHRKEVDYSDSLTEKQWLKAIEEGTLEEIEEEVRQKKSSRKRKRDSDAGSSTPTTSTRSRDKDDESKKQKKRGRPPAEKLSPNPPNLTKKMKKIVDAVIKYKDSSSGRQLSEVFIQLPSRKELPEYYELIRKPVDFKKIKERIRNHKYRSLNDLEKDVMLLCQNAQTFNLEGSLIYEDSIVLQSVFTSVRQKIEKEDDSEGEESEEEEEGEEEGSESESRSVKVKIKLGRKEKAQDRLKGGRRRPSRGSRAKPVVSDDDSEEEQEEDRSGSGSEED
compound,measurement,setting,value
"Cc1nc2cccc(NCCCCCCNC(=O)c3ccc(CCOc4cc(-c5ccccc5O)nnc4N)cc3)c2c(=O)n1C1CCC(=O)NC1=O (stereo not shown) [Compound 52, 4-(2-[[3-amino-6-(2-hydroxyphenyl)pyridazin-4-yl]oxy]ethyl)-N-(6-[[3-(2,6-dioxopiperidin-3-yl)-2-methyl-4-oxoquinazolin-5-yl]amino]hexyl)benzamide]",DC50,HiBit-BRG1,> 1 µM
same,Dmax,HiBit-BRG1,< 50%
same,BRM HiBit Degradation Maximum (%),HiBiT-BRM,C (“C” indicates maximum degradation <50%)
same,DC50,HiBiT-BRM,> 1 µM
Cc1ncsc1-c1ccc(CNC(=O)[C@@H]2C[C@@H](O)CN2C(=O)[C@@H](NC(=O)CCCCCCC(=O)NCc2ccc(CCOc3cc(-c4ccccc4O)nnc3N)cc2)C(C)(C)C)cc1 [Compound 30],DC50,HiBit-BRG1,> 1 µM
same,Dmax,HiBit-BRG1,< 50%
same,BRM HiBit Degradation Maximum (%),HiBiT-BRM,A (“A” indicates maximum degradation ≥75%)
same,DC50,HiBiT-BRM,> 0.1 µM
"Nc1nnc(-c2ccccc2O)cc1OCCc1ccc(CNC(=O)CCCNc2cccc3nnn(C4CCC(=O)NC4=O)c(=O)c23)cc1 (stereo not shown) [Compound 106, N-(4-(2-((3-amino-6-(2-hydroxyphenyl)pyridazin-4-yl)oxy)ethyl)benzyl)-4-((3-(2,6-dioxopiperidin-3-yl)-4-oxo-3,4-dihydrobenzo[d][1,2,3]triazin-5-yl)amino)butanamide]",DC50,HiBit-BRG1,> 1 µM
same,Dmax,HiBit-BRG1,< 50%
same,BRM HiBit Degradation Maximum (%),HiBiT-BRM,C (“C” indicates maximum degradation <50%)
same,DC50,HiBiT-BRM,> 1 µM
"Cc1ncsc1-c1ccc(CNC(=O)[C@@H]2C[C@@H](O)CN2C(=O)[C@@H](NC(=O)CCCCCCCCCCCCCC(=O)NCc2ccc(CCOc3cc(-c4ccccc4O)nnc3N)cc2)C(C)C)cc1 [Compound 169, N1-(4-(2-((3-amino-6-(2-hydroxyphenyl)pyridazin-4-yl)oxy)ethyl)benzyl)-N15-((S)-1-((2S,4R)-4-hydroxy-2-((4-(4-methylthiazol-5-yl)benzyl)carbamoyl)pyrrolidin-1-yl)-3-methyl-1-oxobutan-2-yl)pentadecanediamide]",DC50,HiBit-BRG1,> 1 µM
same,Dmax,HiBit-BRG1,< 50%
same,BRM HiBit Degradation Maximum (%),HiBiT-BRM,B (“B” indicates maximum degradation ≥50%)
same,DC50,HiBiT-BRM,> 0.1 µM
"Cc1ncsc1-c1ccc(CNC(=O)[C@@H]2C[C@@H](O)CN2C(=O)[C@@H](NC(=O)CCN2CCC(CC(=O)NCc3ccc(CCOc4cc(-c5ccccc5O)nnc4N)cc3)CC2)C(C)(C)C)cc1 [Compound 181, (2S,4R)-1-((S)-2-(3-(4-(2-((4-(2-((3-amino-6-(2-hydroxyphenyl)pyridazin-4-yl)oxy)ethyl)benzyl)amino)-2-oxoethyl)piperidin-1-yl)propanamido)-3,3-dimethylbutanoyl)-4-hydroxy-N-(4-(4-methylthiazol-5-yl)benzyl)pyrrolidine-2-carboxamide]",DC50,HiBit-BRG1,> 1 µM
same,Dmax,HiBit-BRG1,< 50%
same,BRM HiBit Degradation Maximum (%),HiBiT-BRM,C (“C” indicates maximum degradation <50%)
same,DC50,HiBiT-BRM,> 1 µM
"Cc1ncsc1-c1ccc(CNC(=O)[C@@H]2C[C@@H](O)CN2C(=O)[C@@H](NC(=O)CCNCc2ccc(CCOc3cc(-c4ccccc4O)nnc3N)cc2)C(C)(C)C)cc1 [Compound 187, (2S,4R)-1-((S)-2-(3-((4-(2-((3-amino-6-(2-hydroxyphenyl)pyridazin-4-yl)oxy)ethyl)benzyl)amino)propanamido)-3,3-dimethylbutanoyl)-4-hydroxy-N-(4-(4-methylthiazol-5-yl)benzyl)pyrrolidine-2-carboxamide]",DC50,HiBit-BRG1,> 1 µM
same,Dmax,HiBit-BRG1,< 50%
same,BRM HiBit Degradation Maximum (%),HiBiT-BRM,C (“C” indicates maximum degradation <50%)
same,DC50,HiBiT-BRM,> 1 µM
"Nc1nnc(-c2ccccc2O)cc1OCCc1ccc(CNCCCCCNc2cccc3nnn(C4CCC(=O)NC4=O)c(=O)c23)cc1 (stereo not shown) [Compound 120, 3-(5-[[5-([[4-(2-[[3-amino-6-(2-hydroxyphenyl)pyridazin-4-yl]oxy]ethyl)phenyl]methyl]amino)pentyl]amino]-4-oxo-1,2,3-benzotriazin-3-yl)piperidine-2,6-dione]",DC50,HiBit-BRG1,> 1 µM
same,Dmax,HiBit-BRG1,> 50%
same,BRM HiBit Degradation Maximum (%),HiBiT-BRM,B (“B” indicates maximum degradation ≥50%)
same,DC50,HiBiT-BRM,> 0.1 µM
